{
  "source": "paper PMC4875962",
  "about": "(Clinical Pharmacokinetics, 2015)",
  "key": {"CYPs": {"tested_on": "CYPs", "conditions": "read-out: IC50, inhibitory effect on CYPs; cited from earlier work"}, "OAT1": {"tested_on": "OAT1", "conditions": "read-out: IC50, inhibitory effect on OAT1; cited from earlier work"}, "OCT1": {"tested_on": "OCT1", "conditions": "read-out: IC50, inhibitory effect on OCT1; cited from earlier work"}, "[1]": {"conditions": "cited from earlier work"}, "[2]": {"conditions": "cited from earlier work", "remark": "listed apart in the source"}, "[3]": {"tested_on": "multidrug resistance protein 1 (MDR1; P-gp)", "experiment": "Induction of gene expression in human hepatocytes", "conditions": "data on file"}, "[4]": {"conditions": "coadministration of amiodarone, following 3 days of once daily dosing"}, "[5]": {"conditions": "coadministration of cyclosporine"}, "[6]": {"conditions": "coadministration of dronedarone"}, "[7]": {"conditions": "coadministration of erythromycin"}, "[8]": {"conditions": "coadministration of high-dose aspirin (325 mg)"}, "[9]": {"conditions": "coadministration of ketoconazole"}, "[10]": {"conditions": "coadministration of oral quinidine"}, "[11]": {"conditions": "coadministration of sustained-release verapamil"}, "[12]": {"conditions": "rifampin after 7 days of dosing"}},
  "note": "Where two headings read alike, the source gives them in different places.",
  "data": [
    {"smiles": "CN1CCc2nc(C(=O)N[C@@H]3C[C@@H](C(=O)N(C)C)CC[C@@H]3NC(=O)C(=O)Nc3ccc(Cl)cn3)sc2C1", "note": "[edoxaban]", "values": [
      {"measurement": "IC50", "setting": "CYPs", "value": "≥ 100", "unit": "µM"},
      {"measurement": "IC50", "setting": "OAT1", "value": "≥ 100", "unit": "µM"},
      {"measurement": "IC50", "setting": "OCT1", "value": "≥ 100", "unit": "µM"},
      {"measurement": "increase in peak exposure to single doses of edoxaban", "setting": "[1]; [4]", "value": 66, "unit": "%"},
      {"measurement": "increase in total exposure to single doses of edoxaban", "setting": "[1]; [4]", "value": 40, "unit": "%"},
      {"measurement": "effect on peak or total exposure to edoxaban", "setting": "[1]; coadministration of atorvastatin", "value": "no effect"},
      {"measurement": "increase in peak exposure to single doses of edoxaban", "setting": "[1]; [5]", "value": 74, "unit": "%"},
      {"measurement": "increase in total exposure to single doses of edoxaban", "setting": "[1]; [5]", "value": 73, "unit": "%"},
      {"measurement": "increase in edoxaban Cmax", "setting": "[1]; coadministration of digoxin, steady state", "value": 16, "unit": "%"},
      {"measurement": "effect on total exposure or renal clearance at steady state", "setting": "[1]; coadministration of digoxin", "value": "no significant effect"},
      {"measurement": "increase in peak exposure to single doses of edoxaban", "setting": "[1]; [6]", "value": 46, "unit": "%"},
      {"measurement": "increase in total exposure to single doses of edoxaban", "setting": "[1]; [6]", "value": 85, "unit": "%"},
      {"measurement": "increase in peak exposure to single doses of edoxaban", "setting": "[1]; [7]", "value": 68, "unit": "%"},
      {"measurement": "increase in total exposure to single doses of edoxaban", "setting": "[1]; [7]", "value": 85, "unit": "%"},
      {"measurement": "increase in steady-state peak exposure to edoxaban", "setting": "[1]; [8]", "value": 34, "unit": "%"},
      {"measurement": "increase in steady-state total exposure to edoxaban", "setting": "[1]; [8]", "value": 30, "unit": "%"},
      {"measurement": "increase in single-dose peak exposure to edoxaban", "setting": "[1]; [9]", "value": 89, "unit": "%"},
      {"measurement": "increase in single-dose total exposure to edoxaban", "setting": "[1]; [9]", "value": 87, "unit": "%"},
      {"measurement": "effect on peak and total exposure to edoxaban", "setting": "[1]; coadministration of naproxen", "value": "no effect"},
      {"measurement": "increase in 24-h exposure to orally dosed edoxaban", "setting": "[1]; [10]", "value": 77, "unit": "%"},
      {"measurement": "increase in single-dose peak exposure to orally dosed edoxaban", "setting": "[1]; [10]", "value": 85, "unit": "%"},
      {"measurement": "increase in 24-h exposure to single doses of edoxaban", "setting": "[1]; [11]", "value": 53, "unit": "%"},
      {"measurement": "increase in peak exposure to single doses of edoxaban", "setting": "[1]; [11]", "value": 53, "unit": "%"},
      {"measurement": "increase in exposure to edoxaban (Cmax and AUC)", "setting": "[1]; concomitant P-gp inhibitor use", "value": "less than twofold"},
      {"measurement": "decrease in peak exposure to edoxaban", "setting": "[1]; edoxaban 2 h after esomeprazole at steady state", "value": "about 33%"},
      {"measurement": "effect on peak and total exposure to edoxaban", "setting": "[1]; enoxaparin dosed concomitantly or 12 h apart", "value": "did not affect"},
      {"measurement": "increase in Cmax of edoxaban", "setting": "[1]; esomeprazole, 2-h stagger at steady state, 90 % CI 57.98–78.07", "value": "approximately 33%"},
      {"measurement": "effect on total exposure to edoxaban", "setting": "[1]; esomeprazole, 2-h stagger at steady state, 90 % CI within 80–125 %", "value": "no significant effect"},
      {"measurement": "effect on peak and total exposure to edoxaban", "setting": "[1]; esomeprazole, concurrent dosing", "value": "no significant effect"},
      {"measurement": "increase in peak exposure to intravenous edoxaban", "setting": "[1]; orally administered quinidine", "value": 7.5, "unit": "%"},
      {"measurement": "increase in total exposure to intravenous edoxaban", "setting": "[1]; orally administered quinidine", "value": 35, "unit": "%"},
      {"measurement": "decrease in total edoxaban exposure", "setting": "[1]; [12]", "value": "about 34%"},
      {"measurement": "effect on peak edoxaban exposure", "setting": "[1]; [12]", "value": "no effect"},
      {"measurement": "change in QTcI value, one subject", "setting": "[2]; 90 mg dose group, 10 h postdose", "value": 32, "unit": "ms"},
      {"measurement": "upper bounds of the 95 % one-sided CIs for placebo-corrected QTcI change from time-matched baseline", "setting": "[2]; 90 and 180 mg, any time point", "value": "≤ 4", "unit": "ms"},
      {"measurement": "effect on cardiac repolarization", "setting": "[2]; 90 and 180 mg", "value": "did not have a threshold pharmacological effect"},
      {"measurement": "changes in QTcI, all except one subject", "setting": "[2]; all time points", "value": "below 30 ms"},
      {"measurement": "absolute value of QTcI", "setting": "[2]; any subject, 90 and 180 mg", "value": "≤ 450", "unit": "ms"},
      {"measurement": "induction of gene expression of MDR1 (P-gp)", "setting": "[3]", "value": "do not induce"}
    ]}
  ]
}
